Experimental data: patent US20230085307A1, “PYRIDAZINONE COMPOUND AND HERBICIDE” (NISSAN CHEMICAL CORPORATION, priority 2019, published 2023)

Experiments:
Italian ryegrass [1] = test: Test Example 4: herbicidal effect by soil treatment (Table 19, symbol K); type: in vivo, Italian ryegrass (Lolium multiflorum); details: amount of applied herbicide 320 g/ha
Method in brief: (§1)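 Scoring uses the grading scale of an earlier test, three weeks post-application. Treatment consists of spraying a diluted emulsion formulation across the surface of sterilized diluvial soil in which seeds are buried near 1.5 cm deep; boxes are kept in a greenhouse between 25° C. and 30° C.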

velvetleaf [2] = test: Test Example 5: herbicidal effect by foliage application, plastic box (Table 20, symbol M); type: in vivo, velvetleaf (Abutilon theophrasti); details: foliage application after 14-day growth, evaluated three weeks after application
Method in brief: (§2)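 Post-emergence foliar test in sterilized diluvial soil. Compound applied as water-diluted emulsion at a predetermined rate to 14-day-old plants; evaluation at three weeks.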

blackgrass [3] = test: Test Example 4: herbicidal effect by soil treatment (Table 19, symbol J); type: in vivo, blackgrass (Alopecurus myosuroides); details: amount of applied herbicide 320 g/ha
Method in brief: as §1

redroot pigweed [4] = test: Test Example 5: herbicidal effect by foliage application, plastic box (Table 20, symbol N); type: in vivo, redroot pigweed (Amaranthus retroflexus); details: foliage application after 14-day growth, evaluated three weeks after application
Method in brief: as §2

oval-leafed pondweed = test: Test Example 1: herbicidal activity, application before weed generation under submerged conditions (Table 16, symbol C); type: in vivo, oval-leafed pondweed (Monochoria vaginalis); details: amount of applied herbicide 320 g/ha
Method in brief: (§3)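 Emulsion formulation, water-diluted to set dose, was put onto the flooded surface (4 cm depth, alluvial soil) the same day weeds were sown and 2.5-leaf rice transplanted. After 3 weeks at 25-30 °C under glass, each species was rated 0 (≤5% kill) to 5 (≥90% kill).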

Japanese bulrush = test: Test Example 1: herbicidal activity, application before weed generation under submerged conditions (Table 16, symbol B); type: in vivo, Japanese bulrush (Schoenoplectus juncoides); details: amount of applied herbicide 320 g/ha
Method in brief: as §3

persian speedwell [5] = test: Test Example 5: herbicidal effect by foliage application, plastic box (Table 20, symbol R); type: in vivo, Persian speedwell (Veronica persica); details: foliage application after 14-day growth, evaluated three weeks after application
Method in brief: as §2

wild oat [6] = test: Test Example 5: herbicidal effect by foliage application, plastic box (Table 20, symbol I); type: in vivo, wild oat (Avena fatua); details: foliage application after 14-day growth, evaluated three weeks after application
Method in brief: as §2

rice flat sedge = test: Test Example 3: herbicidal effect by foliage application, Wagner pot (Table 18, symbol E); type: in vivo, rice flat sedge (Cyperus iria); details: 320 g/ha
Method in brief: (§4)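 Plants were sown in alluvial soil held under 0.1–0.5 cm standing water and grown 14 days in a greenhouse at 25–30 °C. An emulsifiable formulation, water-diluted to the set dose, was then sprayed onto the foliage, and effects were scored three weeks later using previously defined criteria.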

southern crabgrass [7] = test: Test Example 4: herbicidal effect by soil treatment (Table 19, symbol F); type: in vivo, southern crabgrass (Digitaria ciliaris); details: amount of applied herbicide 320 g/ha
Method in brief: as §1

green foxtail [8] = test: Test Example 4: herbicidal effect by soil treatment (Table 19, symbol G); type: in vivo, green foxtail (Setaria viridis); details: amount of applied herbicide 320 g/ha
Method in brief: as §1

southern crabgrass [9] = test: Test Example 5: herbicidal effect by foliage application, plastic box (Table 20, symbol F); type: in vivo, southern crabgrass (Digitaria ciliaris); details: foliage application after 14-day growth, evaluated three weeks after application
Method in brief: as §2

green foxtail [10] = test: Test Example 5: herbicidal effect by foliage application, plastic box (Table 20, symbol G); type: in vivo, green foxtail (Setaria viridis); details: foliage application after 14-day growth, evaluated three weeks after application
Method in brief: as §2

velvetleaf [11] = test: Test Example 4: herbicidal effect by soil treatment (Table 19, symbol M); type: in vivo, velvetleaf (Abutilon theophrasti); details: amount of applied herbicide 320 g/ha
Method in brief: as §1

barnyard grass [12] = test: Test Example 3: herbicidal effect by foliage application, Wagner pot (Table 18, symbol H); type: in vivo, barnyard grass (Echinochloa crus-galli); details: 320 g/ha
Method in brief: as §4

windgrass [13] = test: Test Example 5: herbicidal effect by foliage application, plastic box (Table 20, symbol L); type: in vivo, windgrass (Apera spica-venti); details: foliage application after 14-day growth, evaluated three weeks after application
Method in brief: as §2

chickweed [14] = test: Test Example 4: herbicidal effect by soil treatment (Table 19, symbol P); type: in vivo, common chickweed (Stellaria media); details: amount of applied herbicide 320 g/ha
Method in brief: as §1

wild oat [15] = test: Test Example 4: herbicidal effect by soil treatment (Table 19, symbol I); type: in vivo, wild oat (Avena fatua); details: amount of applied herbicide 320 g/ha
Method in brief: as §1

chickweed [16] = test: Test Example 5: herbicidal effect by foliage application, plastic box (Table 20, symbol P); type: in vivo, common chickweed (Stellaria media); details: foliage application after 14-day growth, evaluated three weeks after application
Method in brief: as §2

late watergrass = test: Test Example 1: herbicidal activity, application before weed generation under submerged conditions (Table 16, symbol A); type: in vivo, late watergrass (Echinochloa oryzicola); details: amount of applied herbicide 320 g/ha
Method in brief: as §3

barnyard grass [17] = test: Test Example 5: herbicidal effect by foliage application, plastic box (Table 20, symbol H); type: in vivo, barnyard grass (Echinochloa crus-galli); details: foliage application after 14-day growth, evaluated three weeks after application
Method in brief: as §2

Italian ryegrass [18] = test: Test Example 5: herbicidal effect by foliage application, plastic box (Table 20, symbol K); type: in vivo, Italian ryegrass (Lolium multiflorum); details: foliage application after 14-day growth, evaluated three weeks after application
Method in brief: as §2

persian speedwell [19] = test: Test Example 4: herbicidal effect by soil treatment (Table 19, symbol R); type: in vivo, Persian speedwell (Veronica persica); details: amount of applied herbicide 320 g/ha
Method in brief: as §1

barnyard grass [20] = test: Test Example 4: herbicidal effect by soil treatment (Table 19, symbol H); type: in vivo, barnyard grass (Echinochloa crus-galli); details: amount of applied herbicide 320 g/ha
Method in brief: as §1

Chinese sprangletop = test: Test Example 3: herbicidal effect by foliage application, Wagner pot (Table 18, symbol D); type: in vivo, chinese sprangletop (Leptochloa chinensis); details: 320 g/ha
Method in brief: as §4

redroot pigweed [21] = test: Test Example 4: herbicidal effect by soil treatment (Table 19, symbol N); type: in vivo, redroot pigweed (Amaranthus retroflexus); details: amount of applied herbicide 320 g/ha
Method in brief: as §1

lambsquarters [22] = test: Test Example 5: herbicidal effect by foliage application, plastic box (Table 20, symbol O); type: in vivo, lambsquarters (Chenopodium album); details: foliage application after 14-day growth, evaluated three weeks after application
Method in brief: as §2

lambsquarters [23] = test: Test Example 4: herbicidal effect by soil treatment (Table 19, symbol O); type: in vivo, lambsquarters (Chenopodium album); details: amount of applied herbicide 320 g/ha
Method in brief: as §1

blackgrass [24] = test: Test Example 5: herbicidal effect by foliage application, plastic box (Table 20, symbol J); type: in vivo, blackgrass (Alopecurus myosuroides); details: foliage application after 14-day growth, evaluated three weeks after application
Method in brief: as §2

windgrass [25] = test: Test Example 4: herbicidal effect by soil treatment (Table 19, symbol L); type: in vivo, windgrass (Apera spica-venti); details: amount of applied herbicide 320 g/ha
Method in brief: as §1

[26] = amount of applied herbicide 320 g/ha

SMILES | Herbicidal effect by soil treatment, K: Italian ryegrass (Italian ryegrass [1]) | Herbicidal effect by soil treatment, J: blackgrass (blackgrass [3]) | Herbicidal effect, C: oval-leafed pondweed (oval-leafed pondweed) | Herbicidal effect, B: Japanese bulrush (Japanese bulrush) | herbicidal effect on rice flat sedge (E) (rice flat sedge) | Herbicidal effect by soil treatment, F: southern crabgrass (southern crabgrass [7]) | Herbicidal effect by soil treatment, G: green foxtail (green foxtail [8]) | Herbicidal effect by soil treatment, M: velvetleaf (velvetleaf [11]) | herbicidal effect on barnyard grass (H) (barnyard grass [12]) | Herbicidal effect by soil treatment, P: chickweed (chickweed [14]) | Herbicidal effect by soil treatment, I: wild oat (wild oat [15]) | Herbicidal effect, A: late watergrass (late watergrass) | Herbicidal effect by soil treatment, R: persian speedwell (persian speedwell [19]) | Herbicidal effect by soil treatment, H: barnyard grass (barnyard grass [20]) | herbicidal effect on Chinese sprangletop (D) (Chinese sprangletop) | Herbicidal effect by soil treatment, N: redroot pigweed (redroot pigweed [21]) | Herbicidal effect by soil treatment, O: lambsquarters (lambsquarters [23]) | Herbicidal effect by soil treatment, L: windgrass (windgrass [25]) | also measured
CCCOc1ccc(-c2sc3c(F)cccc3c2-c2c(O)c(C)nn(C)c2=O)cc1 [4-009] | 0 (Herbicidal rate of 5% or less (almost no effect)) | 0 (Herbicidal rate of 5% or less (almost no effect)) | 0 (Herbicidal rate of 5% or less (almost no effect)) | 1 (Herbicidal rate of 5% or more and less than 20%) | 5 (Herbicidal rate of 90% or more (almost completely withered)) | 0 (Herbicidal rate of 5% or less (almost no effect)) | 0 (Herbicidal rate of 5% or less (almost no effect)) | 0 (Herbicidal rate of 5% or less (almost no effect)) | 5 (Herbicidal rate of 90% or more (almost completely withered)) | 4 (Herbicidal rate of 70% or more and less than 90%) | 0 (Herbicidal rate of 5% or less (almost no effect)) | 2 (Herbicidal rate of 20% or more and less than 40%) | 4 (Herbicidal rate of 70% or more and less than 90%) | 0 (Herbicidal rate of 5% or less (almost no effect)) | 3 (Herbicidal rate of 40% or more and less than 70%) | 5 (Herbicidal rate of 90% or more (almost completely withered)) | 3 (Herbicidal rate of 40% or more and less than 70%) | 0 (Herbicidal rate of 5% or less (almost no effect)) | herbicidal effect on M: velvetleaf (evaluation grade 0-5) (velvetleaf [2]; 320 g/ha): 3 (Herbicidal rate of 40% or more and less than 70%); herbicidal effect on N: redroot pigweed (evaluation grade 0-5) (redroot pigweed [4]; 320 g/ha): 5 (Herbicidal rate of 90% or more (almost completely withered)); herbicidal effect on R: persian speedwell (evaluation grade 0-5) (persian speedwell [5]; 320 g/ha): 5 (Herbicidal rate of 90% or more (almost completely withered)); herbicidal effect on I: wild oat (evaluation grade 0-5) (wild oat [6]; 320 g/ha): 0 (Herbicidal rate of 5% or less (almost no effect)); herbicidal effect on F: southern crabgrass (evaluation grade 0-5) (southern crabgrass [9]; 320 g/ha): 3 (Herbicidal rate of 40% or more and less than 70%); herbicidal effect on G: green foxtail (evaluation grade 0-5) (green foxtail [10]; 320 g/ha): 2 (Herbicidal rate of 20% or more and less than 40%); herbicidal effect on L: windgrass (evaluation grade 0-5) (windgrass [13]; 320 g/ha): 4 (Herbicidal rate of 70% or more and less than 90%); herbicidal effect on P: chickweed (evaluation grade 0-5) (chickweed [16]; 320 g/ha): 5 (Herbicidal rate of 90% or more (almost completely withered)); herbicidal effect on H: barnyard grass (evaluation grade 0-5) (barnyard grass [17]; 320 g/ha): 5 (Herbicidal rate of 90% or more (almost completely withered)); herbicidal effect on K: Italian ryegrass (evaluation grade 0-5) (Italian ryegrass [18]; 320 g/ha): 4 (Herbicidal rate of 70% or more and less than 90%); herbicidal effect on O: lambsquarters (evaluation grade 0-5) (lambsquarters [22]; 320 g/ha): 4 (Herbicidal rate of 70% or more and less than 90%); herbicidal effect on J: blackgrass (evaluation grade 0-5) (blackgrass [24]; 320 g/ha): 4 (Herbicidal rate of 70% or more and less than 90%)
CCCC(=O)Oc1c(C)nn(C)c(=O)c1-c1c(-c2ccccc2OC(F)(F)F)sc2c(Cl)cccc12 [4-077] | 0 (Herbicidal rate of 5% or less (almost no effect)) | 0 (Herbicidal rate of 5% or less (almost no effect)) | 0 (Herbicidal rate of 5% or less (almost no effect)) | 0 (Herbicidal rate of 5% or less (almost no effect)) | 5 (Herbicidal rate of 90% or more (almost completely withered)) | 0 (Herbicidal rate of 5% or less (almost no effect)) | 0 (Herbicidal rate of 5% or less (almost no effect)) | 0 (Herbicidal rate of 5% or less (almost no effect)) | 5 (Herbicidal rate of 90% or more (almost completely withered)) | 0 (Herbicidal rate of 5% or less (almost no effect)) | 0 (Herbicidal rate of 5% or less (almost no effect)) | 3 (Herbicidal rate of 40% or more and less than 70%) | 3 (Herbicidal rate of 40% or more and less than 70%) | 0 (Herbicidal rate of 5% or less (almost no effect)) | 4 (Herbicidal rate of 70% or more and less than 90%) | 3 (Herbicidal rate of 40% or more and less than 70%) | 0 (Herbicidal rate of 5% or less (almost no effect)) | 0 (Herbicidal rate of 5% or less (almost no effect)) | Herbicidal effect by foliage application, M: velvetleaf (velvetleaf [2]; [26]): 5 (Herbicidal rate of 90% or more (almost completely withered)); Herbicidal effect by foliage application, N: redroot pigweed (redroot pigweed [4]; [26]): 5 (Herbicidal rate of 90% or more (almost completely withered)); Herbicidal effect by foliage application, R: persian speedwell (persian speedwell [5]; [26]): 5 (Herbicidal rate of 90% or more (almost completely withered)); Herbicidal effect by foliage application, I: wild oat (wild oat [6]; [26]): 0 (Herbicidal rate of 5% or less (almost no effect)); Herbicidal effect by foliage application, F: southern crabgrass (southern crabgrass [9]; [26]): 0 (Herbicidal rate of 5% or less (almost no effect)); Herbicidal effect by foliage application, G: green foxtail (green foxtail [10]; [26]): 3 (Herbicidal rate of 40% or more and less than 70%); Herbicidal effect by foliage application, L: windgrass (windgrass [13]; [26]): 0 (Herbicidal rate of 5% or less (almost no effect)); Herbicidal effect by foliage application, P: chickweed (chickweed [16]; [26]): 5 (Herbicidal rate of 90% or more (almost completely withered)); Herbicidal effect by foliage application, H: barnyard grass (barnyard grass [17]; [26]): 3 (Herbicidal rate of 40% or more and less than 70%); Herbicidal effect by foliage application, K: Italian ryegrass (Italian ryegrass [18]; [26]): 3 (Herbicidal rate of 40% or more and less than 70%); Herbicidal effect by foliage application, O: lambsquarters (lambsquarters [22]; [26]): 4 (Herbicidal rate of 70% or more and less than 90%); Herbicidal effect by foliage application, J: blackgrass (blackgrass [24]; [26]): 0 (Herbicidal rate of 5% or less (almost no effect))
